Measured values as given in paper PMC7865145, “Identification of existing pharmaceuticals and herbal medicines as inhibitors of SARS-CoV-2 infection” (Proceedings of the National Academy of Sciences of the …, 2021).
Like-named read-outs stand apart in the source and are kept apart here.

Experiments:
[1] = test system: SARS-CoV-2; assay: Quantification of SARS-CoV-2 via antibody staining (viral NP protein) in Vero E6 cells; format: cell-based; conditions: for IC50: viral titer by antinucleocapsid antibody
[2] = biological target: Papain-like protease (nsp3) of SARS-CoV-2 (Severe acute respiratory syndrome coronavirus 2, UniProt P0DTD1); assay: biochemical; format: biochemical; conditions: for inhibition at 100 µM: read-out: Inhibition % at 100 uM of compounds, Papain-like protease (nsp3)
[3] = Cytotoxicity study of compounds with Vero E6 cells (CCK-8); conditions: African green monkey, Vero E6 cells, CC50 (μM)
[4] = test system: SARS-CoV-2 (hCoV-19/Taiwan/4/2020); assay: microbe, parasite or virus in culture; format: cell-based
[5] = in vitro; conditions: African green monkey, CC50 (μM); for CC50: Vero E6 cells
[6] = test system: Vero E6 cells; assay: Cytotoxicity study of compounds with Vero E6 cells (CCK-8)
[7] = test system: SARS-CoV-2; assay: In vivo anti-SARS-CoV-2 assay, lung virus load; conditions: female golden Syrian hamsters, intranasal infection day 0, oral twice a day 30 mg/kg/d for 3 d, n = 5
[8] = test system: Vero E6 cells
[9] = hamster, in vivo
[10] = biological target: nsp7-nsp8-nsp12 complex (Rdrp) of SARS-CoV-2 (Severe acute respiratory syndrome coronavirus 2, UniProt P0DTD1); assay: Activity assay for SARS-CoV-2 RNA-dependent RNA polymerase; format: biochemical
[11] = Severe acute respiratory syndrome coronavirus 2, Vero C1008, 100 PFU of SARS-CoV-2 (multiplicity of infection 0.025) in Vero E6 cells
[12] = 100 uM, FRET-based enzymatic assay, 3 independent experiments, N.I. = no inhibition
[13] = Severe acute respiratory syndrome coronavirus 2, Vero C1008, 72 h, read-out: CPE (μM) D3
[14] = 100 PFU of SARS-CoV-2 (multiplicity of infection 0.025) in Vero E6 cells
[15] = Severe acute respiratory syndrome coronavirus 2, Vero C1008, minimal dose that showed antiinfective effect after virus challenge, incubation 72 h (D3), Vero E6, read-out: CPE (μM) D3
[16] = Severe acute respiratory syndrome coronavirus 2, Vero C1008, minimal dose that showed antiinfective effect after virus challenge, incubation 120 h (D5), Vero E6, N.I. = no inhibition, dash = cytotoxicity was observed, read-out: CPE (μM) D5
[17] = Severe acute respiratory syndrome coronavirus 2, Vero C1008, 120 h, […], N.I. = no inhibition, dash = cytotoxicity was observed, read-out: CPE (μM) D5

| SMILES | IC50 [1, 11] [µM] | Inhibition % at 100 uM of compounds, Papain-like protease (nsp3) [2, 12] | CC50 at 24 h [3] [µM] | minimal effective concentration [4, 13] [µM] | CC50 [5] [µM] | IC50 [1, 14] [µM] | lung virus load vs control (drugs) [7] | minimal effective concentration [4, 15] [µM] | minimal effective concentration [4, 16] [µM] | also measured |
| --- | --- | --- | --- | --- | --- | --- | --- | --- | --- | --- |
| CC(C)(C)c1cc(C(C)(C)C)c(NC(=O)c2c[nH]c3ccccc3c2=O)cc1O [Ivacaftor 9, Ivacaftor] | 3.7 | N.I. | 12.9 | 5 | – | – | – | – | – | CPE (μM) D5 ([4]; […], N.I. = no inhibition, dash = cytotoxicity was observed): N.I. |
| CC[C@H](C)[C@H]1O[C@]2(CC[C@@H]1C)C[C@@H]1C[C@@H](C/C=C(\C)[C@@H](O[C@H]3C[C@H](OC)[C@@H](O[C@H]4C[C@H](OC)[C@@H](O)[C@H](C)O4)[C@H](C)O3)[C@@H](C)/C=C/C=C3\CO[C@@H]4[C@H](O)C(C)=C[C@@H](C(=O)O1)[C@]34O)O2 [Ivermectin 6, Ivermectin] | 4.1 | N.I. | – | 2.5 | 13.2 | – | – | – | – | cytotoxicity in the cell-based assay ([6]; Vero E6): high cytotoxicity |
| OC(c1cc(C(F)(F)F)nc2c(C(F)(F)F)cccc12)C1CCCCN1 (stereo not shown) [Mefloquine 8, Mefloquine] | 3.24 | N.I. | – | – | – | 3.2 | significantly reduced viral load | 5 | 10 | – |
| CC[C@@]1([C@@H]2O[C@@H]([C@H]3O[C@@](O)(CO)[C@H](C)C[C@@H]3C)C[C@@H]2C)CC[C@H]([C@]2(C)CC[C@]3(C[C@H](O)[C@@H](C)[C@@H]([C@@H](C)[C@@H](OC)[C@H](C)C(=O)O)O3)O2)O1 [Monensin 14, Monensin] | 6.38 | N.I. | – | 0.117 | 6.66 | 6.4 | – | – | – | selectivity index (antiviral effect vs cytotoxicity) ([1]; Vero E6, CC50 vs IC50): no selectivity; CC50 ([6]; Vero E6 cells): 6.6 µM; minimal effective concentration [4, 17]: 2.5 µM |
| CO/N=C1\C[C@]2(C[C@@H]3C[C@@H](C/C=C(\C)C[C@@H](C)/C=C/C=C4\CO[C@@H]5[C@H](O)C(C)=C[C@@H](C(=O)O3)[C@]45O)O2)O[C@H](/C(C)=C/C(C)C)[C@H]1C [Moxidectin 7, Moxidectin] | 3.17 | N.I. | – | – | – | 3.1 | – | 5 | 10 | CC50 at 24 h [5]: 6.88 µM; cytotoxicity in the cell-based assay [8]: high cytotoxicity; CC50 ([8]; African green monkey, 24 h): 6.9 µM |
| Cc1c(O)cccc1C(=O)N[C@@H](CSc1ccccc1)[C@H](O)CN1C[C@H]2CCCC[C@H]2C[C@H]1C(=O)NC(C)(C)C [Nelfinavir 1, Nelfinavir] | 3.3 | – | 12.3 | – | – | – | good antiviral effects | 5 | 10 | fold higher anti-SARS-CoV-2 activity than boceprevir in the cell-based assay ([1]; Vero E6): 15 fold; inhibition at 100 µM [2, 12]: 3.5% |
| OC1(c2ccc(Cl)c(C(F)(F)F)c2)CCN(CCCC(c2ccc(F)cc2)c2ccc(F)cc2)CC1 [Penfluridol 11, Penfluridol] | 2.41 | N.I. | 12.9 | – | – | 2.4 | – | 5 | 10 | – |
| CC[C@@H](C(=O)[C@@H](C)[C@@H](O)[C@H](C)[C@@H]1O[C@@H]([C@@H](CC)C(=O)O)CC[C@@H]1C)[C@H]1O[C@]2(C=C[C@@H](O)[C@]3(CC[C@@](C)([C@H]4CC[C@](O)(CC)[C@H](C)O4)O3)O2)[C@H](C)C[C@@H]1C [Salinomycin 13, Salinomycin] | 0.000479 | – | – | 0.039 | 13.1 | 0.00048 | no significant antiinfective effect | – | – | selectivity ratio ([1]; African green monkey, Vero E6, CC50 vs IC50, read-out: selectivity index (antiviral effect vs cytotoxicity)): > 100; inhibition at 100 µM [2]: 9.4%; body-weight change after 3-d treatment [9]: higher weight loss than the control group; minimal effective concentration [4, 17]: 0.156 µM |
| Nc1nc(=S)c2ncn([C@@H]3O[C@H](COP(=O)(O)OP(=O)(O)OP(=O)(O)O)[C@@H](O)[C@H]3O)c2[nH]1 [TGTP, thioguanosine triphosphate] | – | – | – | – | – | – | – | – | – | inhibition against Rdrp in vitro [10]: no inhibition |
| Nc1nc2nc[nH]c2c(=S)[nH]1 [Thioguanine 3, Thioguanine] | 1.67 | – | 25.4 | – | – | 1.7 | no significant antiinfective effect | 1.25 | 2.5 | – |
